Data published in publication PMC7764069 (Microorganisms, 2020).
Where two headings read alike, the source gives them in different places.

How the values were obtained:
[1] = BXA in humans; mimicked by 15 mg/kg BXM BID for 5 days orally in immunocompetent mice; cited from earlier work
A(H1N1)pdm09 virus = system: A(H1N1)pdm09 virus; design: method as in PMID 31837268; settings: nude mice, BXM 10 mg/kg once daily for 28 days; untreated controls 5 days; cited from earlier work
[2] = system: splenic T, B and NK cells; settings: for frequency of proliferating B cells: day 4 post infection; for frequency of proliferating B cells / percentage of proliferating T cells: CP 100 mg/kg i.p.

## O=C1c2c(O)c(=O)ccn2N([C@@H]2c3ccccc3SCc3c2ccc(F)c3F)[C@@H]2COCCN12 [BXA, baloxavir acid]
[1]
  target plasma concentration: 6.85 ng/mL

## COC(=O)OCOc1c2n(ccc1=O)N([C@@H]1c3ccccc3SCc3c1ccc(F)c3F)[C@@H]1COCCN1C2=O [BXM, baloxavir marboxil]
A(H1N1)pdm09 virus
  median survival time: 49 days

## O=P1(N(CCCl)CCCl)NCCCO1 (stereo not shown) [CP, cyclophosphamide]
[2]; following CP administration, day 4 p.i.
  NK proliferative capacity: no significant decline
[2]; infected animals, without CP 94.7%
  frequency of proliferating B cells: 40.7%
[2]; infected mice, day 4 p.i., without CP […]
  percentage of proliferating T cells: 72.6%
[2]; uninfected mice, day 4 p.i., without CP 92.2%
  percentage of proliferating T cells: 63.1%
[2]; uninfected mice, without CP 82.5%
  frequency of proliferating B cells: 36.2%
